Source: paper PMC9428149, “Tackling recalcitrant Pseudomonas aeruginosa infections in critical illness via anti-virulence monotherapy” (Nature Communications, 2022)
Values after ≈ are worked out from the molar mass of the structure shown. Values joined by “and” are separate entries in the source; they are usually repeats but may differ in a detail not shown here. Identical values can stand only once. Like-named read-outs stand apart in the source and are kept apart here.

Columns and labels:
[1] = test system: pqsA promoter (PA14 PpqsA-GFPASV); assay: pqsA-GFP reporter expression; type: cell-based, Pseudomonas aeruginosa; conditions: Pseudomonas aeruginosa, PA14, read-out: % Production pqsA-GFP
[2] = test system: PA14 isogenic mutant ΔmvfR AT/P cells; assay: AT/P cell formation in ΔmvfR mutant (off-target); conditions: Pseudomonas aeruginosa, PA14, 24 h, read-out: AT/P cell formation, ΔmvfR + compound; PA14 about 100; single replicates (Figure 4b)
[3] = test system: pyocyanin production in PA14; assay: Pyocyanin production assay; conditions: Pseudomonas aeruginosa
Experimental: The over-day culture was grown to OD600nm 1.5., diluted again at 1:10,000 in 5 mL LB and incubated with 10 μM of the test compound or the vehicle control for 18 hours at 37 °C and 200 rpm in an incubator shaker. After 18 h, 1 mL of culture was centrifuged for 2 min at 20.000 x g. The supernatant was transferred to a new tube, 200 μL of this were loaded in a flat-bottom 96-well plate, and the pyocyanin levels were quantified by measuring at OD690nm in the infinite F200 plate reader using the Magellan software (Tecan, Switzerland). […] The percent of pyocyanin was calculated compared to the PA14 culture grown in the absence of compounds.
To determine the IC50 of pyocyanin production, we followed the same process as above. […] Using GraphPad Prism Software, the IC50 curve was plotted against percent inhibition of pyocyanin production at each concentration using PA14 in the absence of compounds as a control.

[4] = Solubility in iPBS pH 7.4 by HPLC; type: physicochemical; conditions: isotonic phosphate buffer (iPBS), aqueous with cosolvent or surfactant or cyclodextrin, kinetic from dmso stock; iPBS pH 7.4, HPLC; read-out: Solubility (M) in PBS
Experimental: Solubility of the 10 mM compounds dissolved in DMSO was tested in the isotonic phosphate buffer (iPBS) at pH 7.4 using High-Performance Liquid Chromatography (HPLC). For the preparation of iPBS phosphate-buffered saline tab (Sigma-Aldrich 08057-12Tab-F) is dissolved in 500 mL of deionized water and the final composition of the solution contains 10 mM PBS, 2.7 mM KCl, 140 mM NaCl and 0.05% Tween. A total 10 µL of the compound from a 10 mM stock solution in DMSO was added to the vial, and 190 µL of buffer was added to each vial and mixed with shaking at room temperature for 4 h. Thereafter the samples were filtered, and 160 µL of the sample was mixed with 40 µL of DMSO for the final injection. Ibuprofen (high solubility) and Progesterone (low Solubility) were used as standard compounds. Ammonium Acetate aqueous solution (50 mM, pH 7.4) and the acetonitrile were used as mobile phases A and B, respectively. The measurement of concentration was achieved by comparing of UV absorbance of the sample solution and the known standard solution following an HPLC separation using a generic fast gradient method. The solubility of each compound is expressed by the ratio of compound amount in the sample test solution to the amount of compound in the standard solution.

[5] = test system: mvfR mutant constitutively expressing the pqsABCDE operon; type: cell-based; conditions: Pseudomonas aeruginosa, control about 100, single replicates (Figure 4a)
PA14 AT/P cells = assay: AT/P cells formation assay in PA14; type: cell-based, Pseudomonas aeruginosa
[6] = test system: 16 MDR P. aeruginosa clinical isolates; assay: Pyocyanin production in MDR clinical isolates; conditions: Pseudomonas aeruginosa, 18 h, Control about 100, replicates
ΔmvfR biofilm = assay: Biofilm formation of ΔmvfR mutant (off-target); conditions: Pseudomonas aeruginosa, PA14, 24 h, read-out: Biofilm formation, ΔmvfR + compound; PA14 about 100; single replicates (Figure 4c)
PA14 biofilm = assay: Biofilm formation in 96-well plates, PA14; type: cell-based, Pseudomonas aeruginosa; conditions: PA14, 10 µM, 24 h
[7] = target: MvfR binding to the pqsA promoter (Pseudomonas aeruginosa, UniProt Q9I4X0); type: cell-based; conditions: D88 −, PQS +; Figure 5c; replicates
MvfR binding to the pqsA promoter, sequence (Q9I4X0 whole entry, looked up): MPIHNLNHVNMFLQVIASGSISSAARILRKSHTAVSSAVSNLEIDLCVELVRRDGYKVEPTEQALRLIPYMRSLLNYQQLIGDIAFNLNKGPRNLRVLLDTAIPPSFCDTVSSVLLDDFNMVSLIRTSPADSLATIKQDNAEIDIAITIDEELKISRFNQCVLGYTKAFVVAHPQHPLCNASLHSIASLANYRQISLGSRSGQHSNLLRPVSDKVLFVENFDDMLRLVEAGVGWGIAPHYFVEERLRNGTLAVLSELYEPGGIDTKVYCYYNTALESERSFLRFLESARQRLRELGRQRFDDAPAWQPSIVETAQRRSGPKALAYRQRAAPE

Q: For O=C(Nc1ccc(Oc2ccccc2)cc1)C(F)C(=O)Nc1ccc(C(F)(F)F)cc1 (stereo not shown) [D100], which activity at 50 µM [1] is on record?
A: 2%

Q: What about the activity at 10 µM [2] of the same compound?
A: 42.2%

Q: And the activity at 50 µM ([3]; PA14, 18 h, read-out: % Production Pyocyanin)?
A: 7%

Q: What about the IC50 ([3]; PA14, read-out: IC50 pyocyanin production) of the same compound?
A: 380 nM

Q: And the solubility at 4 h [4]?
A: 5e-06 M (≈ 2.16 µg/mL)

Q: What about the activity at 50 µM ([5]; read-out: 2-AA, ΔmvfR-pqsABCD strain) of the same compound?
A: 97.5%

Q: And the activity at 50 µM ([5]; read-out: DHQ, ΔmvfR-pqsABCD strain)?
A: 92.5%

Q: And the activity at 50 µM ([5]; read-out: HHQ, ΔmvfR-pqsABCD strain)?
A: 104%

Q: And the activity at 50 µM ([5]; read-out: HQNO, ΔmvfR-pqsABCD strain)?
A: 98.7%

Q: And the activity at 50 µM ([5]; read-out: PQS, ΔmvfR-pqsABCD strain)?
A: 81.3%

Q: What about the “AT/P cells formation, percentage of control (single replicates)” value (PA14 AT/P cells; PA14, 10 μg mL^−1 meropenem, 10 µM compound, 24 h, control PA14 + vehicle) of the same compound?
A: 18.86% and 47.86% and 24.02%

Q: What about the inhibition at 10 µM (PA14 AT/P cells; Pseudomonas aeruginosa, PA14, 24 h, read-out: inhibition of AT/P cells formation) of the same compound?
A: ≥ 51%

Q: What about the activity at 10 µM ([6]; read-out: Pyocyanin production relative to Control, clinical isolate LGR-4325) of the same compound?
A: 13.3%

Q: And the activity at 10 µM ([6]; read-out: Pyocyanin production relative to Control, clinical isolate LGR-4326)?
A: 19.1%

Q: And the activity at 10 µM ([6]; read-out: Pyocyanin production relative to Control, clinical isolate LGR-4327)?
A: 21.7%

Q: What about the activity at 10 µM ([6]; read-out: Pyocyanin production relative to Control, clinical isolate LGR-4328) of the same compound?
A: 31.1%

Q: What about the activity at 10 µM ([6]; read-out: Pyocyanin production relative to Control, clinical isolate LGR-4330) of the same compound?
A: 31.1%

Q: And the activity at 10 µM ([6]; read-out: Pyocyanin production relative to Control, clinical isolate LGR-4331 (first section, r117))?
A: 23.5%

Q: What about the activity at 10 µM ([6]; read-out: Pyocyanin production relative to Control, clinical isolate LGR-4331 (second section, r140)) of the same compound?
A: 12%

Q: And the activity at 10 µM ([6]; read-out: Pyocyanin production relative to Control, clinical isolate LGR-4333)?
A: 15.4%

Q: And the activity at 10 µM ([6]; read-out: Pyocyanin production relative to Control, clinical isolate LGR-4343)?
A: 13.4%

Q: What about the activity at 10 µM ([6]; read-out: Pyocyanin production relative to Control, clinical isolate LGR-4344) of the same compound?
A: 16.3%

Q: What about the activity at 10 µM ([6]; read-out: Pyocyanin production relative to Control, clinical isolate LGR-4348) of the same compound?
A: 26.1%

Q: And the activity at 10 µM ([6]; read-out: Pyocyanin production relative to Control, clinical isolate LGR-4356)?
A: 16.4%

Q: What about the activity at 10 µM ([6]; read-out: Pyocyanin production relative to Control, clinical isolate LGR-4362) of the same compound?
A: 33%

Q: What about the activity at 10 µM ([6]; read-out: Pyocyanin production relative to Control, clinical isolate LGR-4363) of the same compound?
A: 10.2%

Q: And the activity at 10 µM ([6]; read-out: Pyocyanin production relative to Control, clinical isolate LGR-4364 (first section, r326))?
A: 13.3%

Q: What about the activity at 10 µM ([6]; read-out: Pyocyanin production relative to Control, clinical isolate LGR-4364 (second section, r349)) of the same compound?
A: 10.6%

Q: What about the activity at 10 µM (ΔmvfR biofilm) of the same compound?
A: 39.3%

Q: What about the “biofilm formation inhibition rate” value (PA14 biofilm) of the same compound?
A: highest inhibition

Q: Which “MvfR binding to the pqsA promoter (ChIP-qPCR)” value [7] does the source give for CCCCCCCc1nc2ccccc2c(O)c1O [PQS] here?
A: 12.2267 and 11.783 and 5.7525
